Test results as given in patent US20170314205A1, “Microorganism Control System and Method of Using the Same” (Ecolab USA Inc., priority 2014, published 2017).

Assay: Effect of acid addition on pH and available chlorine of urea-stabilized halogen-containing bactericide
Assay type: physicochemical
Details: for Solution pH / Available chlorine: final 30 ml; for Available chlorine: blank 2550
Experimental: Then, 5 beakers were provided and separately added with 1 ml of the prepared urea-stabilized halogen-containing bactericide. After that, 29 ml of water was added to the first beaker for dilution (blank control), while the other 4 beakers were separately added with 20% sulfuric acid (0.5 ml or 1.0 ml) or 20% citric acid (1.0 ml or 2.0 ml), and added with water to reach a final volume of 30 ml. Finally, pH values and available chlorine contents (ppm) of solutions in the 5 beakers were measured.
Further, 10% aminosulfonic acid (which was used to replace sulfuric acid or citric acid, which dosage was 1.1 ml or 1.24 ml) was used to repeat the above experiments. […] In addition, after aminosulfonic acid was added, pH values and available chlorine contents (ppm) in solutions were measured, and after standing for 40 min, 120 min, and 240 min, available chlorine contents (ppm) of solutions were measured again. […]

[1] = acid volume 1.0 ml to 1 ml urea-stabilized bactericide (12.5% hypochlorite)
[2] = acid volume 2.0 ml to 1 ml urea-stabilized bactericide (12.5% hypochlorite)
[3] = acid volume 0.5 ml to 1 ml urea-stabilized bactericide (12.5% hypochlorite)

SMILES | Solution pH after mixing (10% acid 1.1 ml to 1 ml urea-stabilized bactericide (8.5% hypochlorite)) | Available chlorine after mixing (10% acid 1.1 ml, 0 min) | Available chlorine after mixing (10% acid 1.1 ml, 40 min) | Available chlorine after mixing (10% acid 1.1 ml, 120 min) | Available chlorine after mixing (10% acid 1.1 ml, 240 min) | Solution pH after mixing (10% acid 1.24 ml to 1 ml urea-stabilized bactericide (8.5% hypochlorite)) | Available chlorine after mixing (10% acid 1.24 ml, 0 min) | Available chlorine after mixing (10% acid 1.24 ml, 40 min) | Available chlorine after mixing (10% acid 1.24 ml, 120 min) | Available chlorine after mixing (10% acid 1.24 ml, 240 min) | Time for which available chlorine content of solution is maintained (urea-stabilized bactericide with pH regulated by aminosulfonic acid) | Solution pH [1] | Available chlorine [1] | Solution pH [2] | Available chlorine [2] | Solution pH [3] | Available chlorine [3]
NS(=O)(=O)O [Aminosulfonic acid, aminosulfonic acid] | 8.46 | 1275 ppm | 1275 ppm | 1325 ppm | 1400 ppm | 5.96 | 1300 ppm | 1325 ppm | 1475 ppm | 1250 ppm | at least 240 min |  |  |  |  |  | 
O=C(O)CC(O)(CC(=O)O)C(=O)O [20% citric acid, citric acid, reference compound] |  |  |  |  |  |  |  |  |  |  |  | 7.75 | 1250 ppm | 3.65 | 725 ppm |  | 
O=S(=O)(O)O [20% sulfuric acid, sulfuric acid, reference compound] |  |  |  |  |  |  |  |  |  |  |  | 2.15 | 455 ppm |  |  | 7.35 | 750 ppm
